# Several values for one entry are separate records, joined by “and”; a condition that tells them apart may be missing. Identical values can stand only once. Entries after “also recorded” stand apart in the source; their conditions may differ. Like-named read-outs stand apart in the source and are kept apart here.
# Key:
# pSmad2/Smad2 = assay: Alveolar (BAL) pSmad2/Smad2, change from baseline at 24 hours (FIG. 12, prior studies); type: in vivo, human; conditions: 80 mg and 160 mg, p<0.0001 at both doses
# Description: (§1) FIG. 12 through FIG. 33 illustrate various details and results from the clinical trial. […] In FIG. 12, BAL refers to bronchoalveolar lavage; pSmad2/Smad2 refers to ratio of phosphorylated Smad2 to total Smad2; and QD refers to once daily. **** refers to p<0.0001.
# [1] = SAD and MAD first-in-human pharmacokinetic studies; type: in vivo; conditions: SAD study, 75 mg oral solution, healthy human subjects; for AUC(0-t): human, po, 75 mg
# Protocol: Healthy human subjects (N=85) were selected for single ascending dose (SAD) and multiple ascending dose (MAD) first-in-human studies. A solution for oral administration was prepared, containing 10 mg/mL of Compound 5 in a 50:50 mixture of […], Michigan) and sterile water for irrigation. Sufficient solution was administered orally to the subjects to provide between 15 mg/dose and 75 mg/dose of Compound 5 in the SAD study and between 10 mg/dose and 40 mg/dose of Compound 5 in the MAD study. Concentrations of Compound 5 were measured in the subjects by obtaining a sample of plasma from each subject at desired intervals, and subjecting the plasma to liquid chromatography-mass spectrometry-mass spectrometry (LC-MS/MS), with quantification using a calibration curve determined from a range of solutions at standardized concentrations. The lower limit of quantitation (LLOQ) of the assay was 1 ng/mL and the calibration curve range was 1 to 500 ng/mL.
# [2] = test system: patients with idiopathic pulmonary fibrosis (IPF); assay: Phase 2a randomized, double-blind, placebo-controlled trial in IPF; type: in vivo, human; conditions: FIG. 36
# lung Col1a1 expression = assay: Precision cut lung slices, chronic bleomycin exposure, Col1a1 expression; type: cell-based, mice (C57BL/6); conditions: chronic bleomycin PCLS, 7 days culture
# Protocol: Mice (C57BL/6) were administered 3 U/kg of bleomycin (Teva Pharmaceuticals; North Wales, PA) on Day 0 and 1 U/kg of bleomycin on days 14, 28, 42 and 56 via oropharyngeal aspiration while under anesthesia. At day 70, 14 days after the final bleomycin insult, precision cut lung slices were obtained. […] The lobes were then subjected to precision slicing to obtain samples for culture using a microtome (Compresstome VF-300-OZ, Precisionary; Greenville, NC). Individual slices were distributed in a multiwell culture plate and cultured for 7 days under control (DMSO) and test compound conditions. The viability of the slices over the course of culturing was confirmed by WST-1 assay of mitochondrial activity. […] Compound 5; and the small molecule ALK5 inhibitor. […] Compound 5 was run at approximate IC50 for inhibition of TGF-beta activation by αVβ6.
# [3] = test system: PRO-C6, Type VI collagen synthesis neoepitope; assay: Phase 2a clinical trial: serum biomarker PRO-C6; type: in vivo, human; conditions: IPF participants, 40 to 320 mg, 4 and 12 weeks
# Protocol: Blank columns represent 40 mg Compound 5 dosage. Grid pattern filled columns represent 80 mg Compound 5 dosage. Diagonal line filled columns represent 160 mg Compound 5 dosage. Dot filled columns represent all participants dosed with Compound 5. […] In FIG. 21, LS refers to Least Squares and SEM refers to Standard Error of Mean.
# PRO-C3 and PRO-C6, serum biomarkers of type III and VI collagen synthesis, respectively, were previously shown to be elevated in patients with IPF and associated with progressive disease, according to Respir Res. 2019 Jul. 12; 20(1):148. Doi: 10.1186/s12931-019-1118-7, which is herein incorporated by reference in its entirety. Change from baseline was analyzed using a mixed model for repeated measures with terms for treatment group, visit, baseline value, and treatment-by-visit interaction. LS refers to Least Squares; SE refers to Standard Error.
# [4] = Dose-Dependent Target Engagement (FIG. 12, prior studies); type: in vivo, human
# Description: as §1
# [5] = Phase 2a clinical trial: pharmacokinetics, sparse sampling, % unbound; type: in vivo, human; conditions: b1346 concentrations; b1380 unbound concentrations
# Description: Overall Summary of Pharmacokinetics. Based on sparse sampling, overall Compound 5 pharmacokinetics and % unbound in IPF were consistent with that of previous studies. […] Overall % unbound was ˜0.3 to 0.5%. Full PK curve will be predicted using population PK model to project AUC0-24 and Cmax.
# Pharmacokinetic Evaluation. Sparse PK sampling was utilized for pharmacokinetic evaluation.
# [6] = test system: normal human bronchial epithelial cells; assay: LAP adhesion assay, normal human bronchial epithelial cells (xCELLigence); type: cell-based; conditions: FIG. 3A
# Protocol: Two latency associated peptide (LAP) adhesion binding assays were devised using primary human lung cells, including normal (healthy) human bronchial epithelial cells and human lung fibroblasts (healthy and IPF).
# Human bronchial epithelial cells are known to express αVβ6 integrin in culture. Human bronchial epithelial cells were prepared for the assay by dissociation with trypsin/EDTA and were then seeded at 20,000 cells per well on 96 well plates (ACEA Bioscience E-plate View, Acea Biosciences; San Diego, CA) previously coated with 5 μg/ml of recombinant human LAP (R&D Systems; Minneapolis, MN) and blocked with 4% bovine serum albumin.
# [7] = test system: pSMAD2:SMAD2 ratio in BAL; assay: pSMAD2:SMAD2 ratio in BAL and plasma Cmax in healthy subjects; type: in vivo, human
# Protocol: (§2) In order to evaluate the change of pSMAD2 as a biomarker of TGF-β activity following administration of an integrin inhibitor, and to determine a therapeutically effective dosage and an effective blood plasma Cmax of the integrin inhibitor, healthy subjects were administered Compound 5, a dual selective αVβ6/αVβ1-integrin inhibitor, and the corresponding Cmax levels and decrease in phosphorylation levels and were determined.
# (§3) Healthy non-smoking adult males without history of lung disease were selected as subjects and were randomized into 4 cohorts. Broncoalevaolar lavage samples were obtained from all subjects 1 day prior to start of treatment. Cohorts 1 and 2 were administered 20 mg of a compound daily, wherein 3 subjects were administered the dual selective αVβ6/αVβ1-integrin inhibitor (Compound 5) per every 1 subject receiving a placebo compound. Cohorts 3 and 4 were administered 40 mg of a compound daily, wherein 3 subjects were administered the dual selective αVβ6/αVβ1-integrin inhibitor (Compound 5) per every 1 subject receiving a placebo compound. BAL samples and blood samples were taken from all subjects on Day −1 (baseline) and on Day 7 (end of treatment).
# [8] = as above; type: in vivo, human; conditions: male, human, plasma, 40 mg/day, after the dose on Day 7, subjects of FIG. 8A-8F; read-out: Cmax (peak of the blood plasma concentration)
# Protocol: as §2, §3
# [9] = 40 mg/day, after the dose on Day 7, subjects of FIG. 8A-8F
smiles,measurement,setting,value
"COCCN(CCCCc1ccc2c(n1)NCCC2)CC[C@H](Nc1ncnc2ccccc12)C(=O)O [Compound 5, (S)-4-((2-methoxyethyl) (4-(5,6,7,8-tetrahydro-1,8-naphthyridin-2-yl)butyl)amino)-2-(quinazolin-4-ylamino) butanoic acid]","Alveolar pSmad2/Smad2, Percentage Change from Baseline at 24 Hours vs. placebo",pSmad2/Smad2,statistically significant
same,Thalf,[1],20.0 ± 3.6 h
same,AUC(0-t),"[1]; plasma, read-out: AUC0-24",19700 ± 10900 ng·h/mL
same,AUC(0-t),"[1]; plasma, read-out: AUC0-48",22500 ± 15700 ng·h/mL
same,Cmax,[1]; plasma,1870 ± 1240 ng/mL
same,Tmax,[1]; plasma,2.9 ± 1 h
same,patients with FVC improvement at week 12 who maintained improvement in FVC at week 24,[2],About 89%
same,"lung Col1a1 expression, normalized to DMSO control slices",lung Col1a1 expression,decreased lung Col1a1 expression substantially
same,"Serum PRO-C6, change from baseline relative to placebo",[3],decreased; also recorded: reduced
same,Target engagement,[4],dose dependent
same,Concentrations in IPF participants versus dose,[5],increased approximately proportionally with dose
same,normal bronchial epithelial cell adhesion to LAP,[6],substantially inhibited
same,Cmax (peak of the blood plasma concentration),[7]; [9],700 to 900 ng/mL and < 700 ng/mL
same,PD effect (relative change in pSMAD2:SMAD2 ratio from baseline in BAL),[7]; [9],sustained PD effect; also recorded: transitory PD effect; also recorded: no PD effect
same,correlation of plasma Cmax with reduction of pSMAD2:SMAD2 ratio relative to baseline,[7]; 12 h and 24 h post-administration on Day 7,strongly correlated
same,Cmax,[8],> 900 ng/mL

# Reference: patent US20240122930A1, “INTEGRIN INHIBITORS AND USES THEREOF IN COMBINATION WITH OTHER AGENTS” (Pliant Therapeutics, Inc., priority 2022, published 2024)
